Experimental data as given in PubChem BioAssay AID330 (DTP/NCI, 2004).
Several values for one entry are separate records, joined by “and”; a condition that tells them apart may be missing. Equal values may be shown once. Toxic doses and inconclusive results are not listed. The calls were made as follows: active = survival T/C of 150% or more; inactive = T/C below 125% in these data.

Tested on: P388 leukemia ip, CD2F1 mice, survival T/C
Assay: NCI In Vivo Anticancer Drug Screen. Data for tumor model P388 Leukemia (intraperitoneal) in CD2F1 (CDF1) mice
Conditions: endpoint: median survival time, higher = longer survival
How it was run: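 Mice carrying the transplanted tumor received test compound or vehicle. Survival was recorded in each group, and the value is the treated-group measurement divided by that of the vehicle-treated control group.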

[1] = dose: 25.0 mg/kg/injection, schedule: Q01DX009 (ip), vehicle: water
[2] = dose: 50.0 mg/kg/injection, schedule: Q01DX009 (ip), vehicle: water
[3] = dose: 100.0 mg/kg/injection, schedule: Q01DX009 (ip), vehicle: water

Measured: T/C

CC1=CCC(C)C(C)(C)C1CC/C(C)=C/CCC1(C)C(CCCO)/C(=C(\C)C=O)CCC1(C)O (stereo unspecified)
active: dose: 4.5 mg/kg/injection, schedule: Q01DX005 (ip), vehicle: Klucel (hydroxypropylcellulose) (HPC) 152 % of control

O=C(NO)C1NC1C(=O)NO (stereo unspecified)
inactive: [1] 96 % of control | [2] 109 % of control | dose: 100.0 mg/kg/injection, schedule: Q01DX001 (ip), vehicle: water 100 % of control | [3] 111 % of control | dose: 100.0 mg/kg/injection, schedule: Q04DX003 (ip), vehicle: water 115 % of control | dose: 200.0 mg/kg/injection, schedule: Q01DX001 (ip), vehicle: water 107 % of control | dose: 200.0 mg/kg/injection, schedule: Q04DX003 (ip), vehicle: water 112 % of control | dose: 400.0 mg/kg/injection, schedule: Q01DX001 (ip), vehicle: water 100 % of control | dose: 400.0 mg/kg/injection, schedule: Q04DX003 (ip), vehicle: water 112 % of control | dose: 600.0 mg/kg/injection, schedule: Q01DX001 (ip), vehicle: water 101 % of control

C[C@@]1(O)CC[C@@]23OC(=O)CC2C[C@@H]1O3 (stereo partly specified)
inactive: dose: 100.0 mg/kg/injection, schedule: Q01DX001 (ip), vehicle: saline 102 % of control | dose: 200.0 mg/kg/injection, schedule: Q01DX001 (ip), vehicle: saline 98 % of control | dose: 400.0 mg/kg/injection, schedule: Q01DX001 (ip), vehicle: saline 104 % of control

CC1CCCN(CC(O)CN2C[C@@H](C)N(CC(O)CN3CCCC(C)C3)[C@H](C)C2)C1 (stereo partly specified)
inactive: dose: 12.5 mg/kg/injection, schedule: Q01DX005 (ip), vehicle: saline with Tween-80 100 % of control | dose: 25.0 mg/kg/injection, schedule: Q01DX005 (ip), vehicle: saline with Tween-80 100 % of control | dose: 50.0 mg/kg/injection, schedule: Q01DX005 (ip), vehicle: saline with Tween-80 100 % of control and 112 % of control

CC(=O)OCCSCCO
inactive: [1] 94 % of control | [2] 99 % of control | [3] 99 % of control | dose: 200.0 mg/kg/injection, schedule: Q01DX009 (ip), vehicle: water 104 % of control | dose: 400.0 mg/kg/injection, schedule: Q01DX009 (ip), vehicle: water 99 % of control

CC1(C)OCC2OC(n3cnc4c(N)ncnc43)C(O)C2O1 (stereo unspecified)
inactive: dose: 25.0 mg/kg/injection, schedule: Q01DX009 (ip), vehicle: Klucel (hydroxypropylcellulose) (HPC) 111 % of control | dose: 50.0 mg/kg/injection, schedule: Q01DX009 (ip), vehicle: Klucel (hydroxypropylcellulose) (HPC) 111 % of control | dose: 100.0 mg/kg/injection, schedule: Q01DX009 (ip), vehicle: Klucel (hydroxypropylcellulose) (HPC) 111 % of control | dose: 200.0 mg/kg/injection, schedule: Q01DX009 (ip), vehicle: Klucel (hydroxypropylcellulose) (HPC) 97 % of control

CCCc1cc2ccccc2c2ccccc12
inactive: dose: 50.0 mg/kg/injection, schedule: Q01DX005 (ip), vehicle: Klucel (hydroxypropylcellulose) (HPC) 102 % of control | dose: 100.0 mg/kg/injection, schedule: Q01DX005 (ip), vehicle: Klucel (hydroxypropylcellulose) (HPC) 96 % of control | dose: 200.0 mg/kg/injection, schedule: Q01DX005 (ip), vehicle: Klucel (hydroxypropylcellulose) (HPC) 99 % of control

COC(=O)CCC(N)C(=O)NC(Cc1ccccc1)C(=O)NC(C)C(=O)NC1C(O)OC(CO)C(O)C1O (stereo unspecified)
inactive: dose: 60.0 mg/kg/injection, schedule: Q01DX005 (ip), vehicle: saline 99 % of control | dose: 120.0 mg/kg/injection, schedule: Q01DX005 (ip), vehicle: saline 98 % of control | dose: 240.0 mg/kg/injection, schedule: Q01DX005 (ip), vehicle: saline 99 % of control

CN(C)CCCN1c2ccccc2Sc2ccc(Cl)cc21
inactive: dose: 1.0 mg/kg/injection, schedule: Q01DX005 (ip), vehicle: saline 99 % of control | dose: 2.0 mg/kg/injection, schedule: Q01DX005 (ip), vehicle: saline 96 % of control | dose: 4.0 mg/kg/injection, schedule: Q01DX005 (ip), vehicle: saline 104 % of control | dose: 6.25 mg/kg/injection, schedule: Q01DX009 (ip), vehicle: saline with Tween-80 95 % of control | dose: 7.5 mg/kg/injection, schedule: Q04DX003 (ip), vehicle: saline 112 % of control | dose: 8.0 mg/kg/injection, schedule: Q01DX005 (ip), vehicle: saline 106 % of control | dose: 12.5 mg/kg/injection, schedule: Q04DX003 (ip), vehicle: Klucel (hydroxypropylcellulose) (HPC) 111 % of control | dose: 12.5 mg/kg/injection, schedule: Q04DX003 (ip), vehicle: saline 108 % of control and 113 % of control and 120 % of control | dose: 15.0 mg/kg/injection, schedule: Q04DX003 (ip), vehicle: saline 120 % of control | dose: 16.0 mg/kg/injection, schedule: Q01DX005 (ip), vehicle: saline 106 % of control | dose: 25.0 mg/kg/injection, schedule: Q01DX009 (ip), vehicle: saline with Tween-80 100 % of control | dose: 25.0 mg/kg/injection, schedule: Q04DX003 (ip), vehicle: saline 111 % of control and 114 % of control and 118 % of control | dose: 32.0 mg/kg/injection, schedule: Q01DX005 (ip), vehicle: saline 116 % of control | dose: 50.0 mg/kg/injection, schedule: Q04DX003 (ip), vehicle: Klucel (hydroxypropylcellulose) (HPC) 108 % of control | dose: 50.0 mg/kg/injection, schedule: Q04DX003 (ip), vehicle: saline 105 % of control | dose: 64.0 mg/kg/injection, schedule: Q01DX005 (ip), vehicle: saline 105 % of control | dose: 100.0 mg/kg/injection, schedule: Q04DX003 (ip), vehicle: saline 99 % of control

Nc1nc2nc3c(nc2c(=O)[nH]1)C(=O)N(c1ccc(C(=O)O)cc1)C3
inactive: dose: 6.25 mg/kg/injection, schedule: Q04DX003 (ip), vehicle: saline with Tween-80 111 % of control | dose: 12.5 mg/kg/injection, schedule: Q04DX003 (ip), vehicle: saline with Tween-80 98 % of control | dose: 25.0 mg/kg/injection, schedule: Q04DX003 (ip), vehicle: saline with Tween-80 100 % of control and 103 % of control

O=[N+]([O-])c1ccccc1Sc1cccc(Sc2ccccc2[N+](=O)[O-])n1
inactive: dose: 60.0 mg/kg/injection, schedule: Q01DX005 (ip), vehicle: saline with Tween-80 100 % of control | dose: 120.0 mg/kg/injection, schedule: Q01DX005 (ip), vehicle: saline with Tween-80 105 % of control | dose: 240.0 mg/kg/injection, schedule: Q01DX005 (ip), vehicle: saline with Tween-80 102 % of control

Cc1cccc(NC(=O)CCC(=O)NS(C)(=O)=O)c1
inactive: dose: 100.0 mg/kg/injection, schedule: Q04DX002 (ip), vehicle: saline 103 % of control | dose: 200.0 mg/kg/injection, schedule: Q04DX002 (ip), vehicle: saline 102 % of control | dose: 400.0 mg/kg/injection, schedule: Q04DX002 (ip), vehicle: saline 100 % of control

C=C1CCOC2(C(O)C(C)(O)CO)NC(=O)C1(O)NC2=O (stereo unspecified)
inactive: dose: 50.0 mg/kg/injection, schedule: Q01DX009 (ip), vehicle: saline 108 % of control | dose: 100.0 mg/kg/injection, schedule: Q01DX009 (ip), vehicle: saline 118 % of control | dose: 200.0 mg/kg/injection, schedule: Q01DX009 (ip), vehicle: saline 103 % of control | dose: 400.0 mg/kg/injection, schedule: Q01DX009 (ip), vehicle: saline 108 % of control

COC(=O)C(CO)NC(=O)OCc1ccccc1 (stereo unspecified)
inactive: dose: 25.0 mg/kg/injection, schedule: Q01DX005 (ip), vehicle: water 99 % of control | dose: 50.0 mg/kg/injection, schedule: Q01DX005 (ip), vehicle: water 94 % of control | dose: 50.0 mg/kg/injection, schedule: Q01DX009 (ip), vehicle: distilled water + alcohol 95 % of control | dose: 100.0 mg/kg/injection, schedule: Q01DX005 (ip), vehicle: water 105 % of control | dose: 100.0 mg/kg/injection, schedule: Q01DX009 (ip), vehicle: distilled water + alcohol 98 % of control | dose: 200.0 mg/kg/injection, schedule: Q01DX005 (ip), vehicle: water 99 % of control | dose: 200.0 mg/kg/injection, schedule: Q01DX009 (ip), vehicle: distilled water + alcohol 100 % of control | dose: 400.0 mg/kg/injection, schedule: Q01DX009 (ip), vehicle: distilled water + alcohol 96 % of control

CCCCCCCCCCCCCCP(I)(N(C)C)(N(C)C)N(C)C
inactive: dose: 0.1 mg/kg/injection, schedule: Q01DX009 (ip), vehicle: saline with Tween-80 106 % of control | dose: 0.19 mg/kg/injection, schedule: Q01DX009 (ip), vehicle: saline with Tween-80 113 % of control | dose: 0.38 mg/kg/injection, schedule: Q01DX009 (ip), vehicle: saline with Tween-80 117 % of control

O=C(CCCCO)c1nc2ccccc2s1
inactive: dose: 60.0 mg/kg/injection, schedule: Q01DX005 (ip), vehicle: Klucel (hydroxypropylcellulose) (HPC) 98 % of control | dose: 120.0 mg/kg/injection, schedule: Q01DX005 (ip), vehicle: Klucel (hydroxypropylcellulose) (HPC) 102 % of control | dose: 240.0 mg/kg/injection, schedule: Q01DX005 (ip), vehicle: Klucel (hydroxypropylcellulose) (HPC) 95 % of control
